The values that follow come from patent US9040527B2, “Pyrimidinediamine kinase inhibitors” (Rigel Pharmaceuticals, Inc., priority 2008, dated 2015).

The structures appear in SMILES notation. pIC50: −log10 of the molar value.

In assay [1] the target is T1, PLK1 (Homo sapiens, UniProt P53350). Briefly: Cellular PLK1 assay in K562 cells overexpressing CDC25C. The assay is classed as cell-based. Further details: endogenous in cells; host or cells: K562 (human chronic myelogenous leukemia) overexpressing CDC25C, nocodazole-arrested. The conditions noted are these: nocodazole arrested, cdc25c p-Ser198 readout. The gist of the method:
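K562 cells overexpressing CDC25C were arrested with 333 nM nocodazole for 18 h at 37 °C, then exposed to compound at 8 points from 10 μM to 0.005 μM in duplicate for 120 min. After fixation and permeabilization, cells were stained for cdc25c pSer198 with a PE secondary and read by flow cytometry, 10,000 cells per well.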

Assay [2] has as its target T1, PLK1. In words: In vitro PLK1 ELISA assay (biochemical). Further details: purchased Cell Signalling 7728. The note with it: for IC50: ELISA, CHK2-derived peptide substrate, read-out: PLK1 IC50 (μM) biochemical assay. In a few lines:
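Commercial PLK1 phosphorylates neutravidin-captured biotinylated CHK2 peptide for 45 min at room temperature in HEPES pH 7.2 with Mg2+/Mn2+/DTT, compounds at 10 μM to 0.005 μM. Phospho-CHK2(T68) antibody plus HRP secondary gives chemiluminescent read-out used for IC50.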
Background: ELISA stands for enzyme-linked immunosorbent assay.

Where [3] appears, read: read-out: IC50 in biochemical ELISA assay (less than 0.01 μM).
[4] abbreviates: read-out: IC50 in biochemical in vitro PLK1 ELISA assay (less than 10 μM).

T1 sequence (P53350 whole entry): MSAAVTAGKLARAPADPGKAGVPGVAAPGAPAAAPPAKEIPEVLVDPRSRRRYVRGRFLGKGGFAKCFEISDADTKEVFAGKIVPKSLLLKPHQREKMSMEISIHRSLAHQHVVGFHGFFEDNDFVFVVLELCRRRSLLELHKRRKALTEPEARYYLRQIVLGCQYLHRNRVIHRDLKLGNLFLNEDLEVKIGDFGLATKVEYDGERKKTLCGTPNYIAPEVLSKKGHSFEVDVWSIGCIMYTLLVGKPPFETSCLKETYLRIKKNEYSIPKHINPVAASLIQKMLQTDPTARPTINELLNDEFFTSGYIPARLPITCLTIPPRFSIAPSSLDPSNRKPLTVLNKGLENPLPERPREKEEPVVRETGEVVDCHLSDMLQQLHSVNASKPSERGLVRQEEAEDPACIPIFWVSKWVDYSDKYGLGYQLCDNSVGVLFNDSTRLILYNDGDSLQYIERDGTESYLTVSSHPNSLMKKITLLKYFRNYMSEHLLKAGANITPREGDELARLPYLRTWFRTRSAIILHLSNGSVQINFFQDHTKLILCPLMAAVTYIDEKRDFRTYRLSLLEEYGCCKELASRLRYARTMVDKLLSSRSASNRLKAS

In the case of `C#CCN1C(=O)COc2ccc(Nc3nc(Nc4cccc(N5CCN(C)CC5)c4)ncc3F)nc21` [compound 128, 6-(5-fluoro-2-(3-(4-methylpiperazin-1-yl)phenylamino)pyrimidin-4-ylamino)-4-(prop-2-ynyl)-2H-pyrido[3,2-b][1,4]oxazin-3(4H)-one], the IC50 (commonly the point on the concentration scale where inhibition reaches its midpoint) at PLK1 [1] was 0.5 to 5 µM; at PLK1 [2] it was under 0.5 µM. Besides, the pIC50 (usually the negative decadic logarithm of the IC50, by convention in mol/L) on PLK1 [2] (setting [3]) is over 8.00; at PLK1 [2] (setting [4]), over 5.00.

For `Cc1cnc(Nc2cccc(N3CCN(C)CC3)c2)nc1Nc1ccc2c(n1)N(CC1CC1)C(=O)CO2` [compound 129, 4-(cyclopropylmethyl)-6-(5-methyl-2-(3-(4-methylpiperazin-1-yl)phenylamino)pyrimidin-4-ylamino)-2H-pyrido[3,2-b][1,4]oxazin-3(4H)-one], the IC50 is 0.5 to 5 µM on PLK1 [1] and under 0.5 µM on PLK1 [2]. Besides, the values for the negative logarithm of the IC50 (pIC50) at PLK1 [2] (setting [3]) and at PLK1 [2] (setting [4]) were over 8.00 and over 5.00, respectively.

Take `Cc1cnc(Nc2cccc(N3CCN(C)CC3)c2)nc1Nc1ccc2c(n1)N(CC1CCC1)C(=O)CO2` [compound 130, 4-(cyclobutylmethyl)-6-(5-methyl-2-(3-(4-methylpiperazin-1-yl)phenylamino)pyrimidin-4-ylamino)-2H-pyrido[3,2-b][1,4]oxazin-3(4H)-one]: the IC50 on PLK1 [1] is 0.5 to 5 µM; on PLK1 [2] it was under 0.5 µM. Moreover, the pIC50 at PLK1 [2] (setting [3]) was over 8.00; at PLK1 [2] (setting [4]), over 5.00.

Turning to `CN1CCN(c2cccc(Nc3ncc(F)c(Nc4ccc5c(n4)N(C4CCCC4)C(=O)CO5)n3)c2)CC1` [compound 131, 4-cyclopentyl-6-(5-fluoro-2-(3-(4-methylpiperazin-1-yl)phenylamino)pyrimidin-4-ylamino)-2H-pyrido[3,2-b][1,4]oxazin-3(4H)-one], the IC50 at PLK1 [1] was at least 10 µM; on PLK1 [2], 0.5 to 5 µM. At PLK1 [2] (setting [4]), the pIC50 is over 5.00.

`CN1CCN(c2cccc(Nc3ncc(F)c(Nc4ccc5c(n4)N(Cc4ccc(F)cc4)C(=O)CO5)n3)c2)CC1` [compound 132, 6-(5-fluoro-2-(3-(4-methylpiperazin-1-yl)phenylamino)pyrimidin-4-ylamino)-4-(4-fluorobenzyl)-2H-pyrido[3,2-b][1,4]oxazin-3(4H)-one]: the IC50 on PLK1 [1] fell in the range of 0.5 to 5 µM; on PLK1 [2] it was 5 to 10 µM. Moreover, the negative-log IC50 (pIC50) at PLK1 [2] (setting [4]) was over 5.00.

In the case of `Cc1cnc(Nc2cccc(N3CCN(C)CC3)c2)nc1Nc1ccc2c(n1)N(Cc1ccc(F)cc1)C(=O)CO2` [compound 133, 4-(4-fluorobenzyl)-6-(5-methyl-2-(3-(4-methylpiperazin-1-yl)phenylamino)pyrimidin-4-ylamino)-2H-pyrido[3,2-b][1,4]oxazin-3(4H)-one], the concentration for half-maximal inhibition (IC50) is 0.5 to 5 µM against PLK1 [1] and under 0.5 µM on PLK1 [2]. In addition, on PLK1 [2] (setting [4]), the pIC50 is over 5.00.

For the compound `CCC(CC)N1C(=O)COc2ccc(Nc3nc(Nc4cccc(N5CCN(C)CC5)c4)ncc3F)nc21` [compound 134, 6-(5-fluoro-2-(3-(4-methylpiperazin-1-yl)phenylamino)pyrimidin-4-ylamino)-4-(pentan-3-yl)-2H-pyrido[3,2-b][1,4]oxazin-3(4H)-one], the concentration for half-maximal inhibition (IC50) on PLK1 [1] and at PLK1 [2] was under 0.5 µM throughout. For the same compound, the pIC50 at PLK1 [2] (setting [3]) is over 8.00; on PLK1 [2] (setting [4]), over 5.00.

With `CCCN1C(=O)COc2ccc(Nc3nc(Nc4ccc(N5CCN(C)CC5)c(C(F)(F)F)c4)ncc3F)nc21` [compound 135, 6-(5-fluoro-2-(4-(4-methylpiperazin-1-yl)-3-(trifluoromethyl)phenyl-amino)pyrimidin-4-ylamino)-4-propyl-2H-pyrido[3,2-b][1,4]oxazin-3(4H)-one], the half-inhibitory concentration (IC50) on PLK1 [1] and on PLK1 [2] was at least 10 µM in each case.

Take `CCCN1C(=O)COc2ccc(Nc3nc(Nc4ccc(N5CCN(C)CC5)c(C(F)(F)F)c4)ncc3C)nc21` [compound 136, 6-(5-methyl-2-(4-(4-methylpiperazin-1-yl)-3-(trifluoromethyl)phenyl-amino)pyrimidin-4-ylamino)-4-propyl-2H-pyrido[3,2-b][1,4]oxazin-3(4H)-one]: the IC50 on PLK1 [1] and at PLK1 [2] was at least 10 µM in each case.

`CCCN1C(=O)COc2ccc(Nc3nc(Nc4ccc(N5CCN(S(C)(=O)=O)CC5)c(C(F)(F)F)c4)ncc3F)nc21` [compound 137, 6-(5-fluoro-2-(4-(4-(methylsulfonyl)piperazin-1-yl)-3-(trifluoro-methyl)phenyl-amino)pyrimidin-4-ylamino)-4-propyl-2H-pyrido[3,2-b][1,4]oxazin-3(4H)-one]: the IC50 against PLK1 [1] and on PLK1 [2] was at least 10 µM in each case.

For the compound `CCCN1C(=O)COc2ccc(Nc3nc(Nc4ccc(N5CCNCC5)c(C(F)(F)F)c4)ncc3F)nc21` [compound 138, 6-(5-fluoro-2-(4-(piperazin-1-yl)-3-(trifluoromethyl)phenyl-amino)pyrimidin-4-ylamino)-4-propyl-2H-pyrido[3,2-b][1,4]oxazin-3(4H)-one], the IC50 against PLK1 [1] and on PLK1 [2] was at least 10 µM throughout.

For `Cc1cc(Nc2ncc(C)c(Nc3ccc4c(c3)N(Cc3ccccn3)C(=O)C(F)(F)O4)n2)ccc1N1CC2CC1CN2C` (stereo not shown) [compound 139, 2,2-difluoro-6-(5-methyl-2-(3-methyl-4-(5-methyl-2,5-diaza-bicyclo[2.2.1]heptan-2-yl)phenyl-amino)pyrimidin-4-ylamino)-4-(pyridin-2-ylmethyl)-2H-benzo[b][1,4]oxazin-3(4H)-one], the concentration for half-maximal inhibition (IC50) against PLK1 [1] was 5 to 10 µM; at PLK1 [2], at least 10 µM.

Regarding `CN1CCN(c2cccc(Nc3ncc(F)c(Nc4ccc5c(n4)NC(=O)CO5)n3)c2)CC1` [compound 157, 6-(5-fluoro-2-(3-(4-methylpiperazin-1-yl)phenylamino)pyrimidin-4-ylamino)-2H-pyrido[3,2-b][1,4]oxazin-3(4H)-one], the half-maximal inhibitory concentration (IC50) on PLK1 [1] and at PLK1 [2] was under 0.5 µM throughout. In addition, the pIC50 at PLK1 [2] (setting [4]) was over 5.00.

Consider `CN1CCN(c2cccc(Nc3ncc(F)c(Nc4ccc5c(n4)NC(=O)C(C)(C)O5)n3)c2)CC1` [compound 161, 6-(5-fluoro-2-(3-(4-methylpiperazin-1-yl)phenylamino)pyrimidin-4-ylamino)-2,2-dimethyl-2H-pyrido[3,2-b][1,4]oxazin-3(4H)-one], for which the figures for the IC50 at PLK1 [1] and on PLK1 [2] were 0.5 to 5 µM and under 0.5 µM, respectively. For the same compound, the negative-log IC50 (pIC50) on PLK1 [2] (setting [4]) is over 5.00.

Consider `CN1CCN(c2cccc(Nc3ncc(F)c(Nc4ccc5c(n4)NCCO5)n3)c2)CC1` [compound 167, N4-(3,4-dihydro-2H-pyrido[3,2-b][1,4]oxazin-6-yl)-5-fluoro-N2-(3-(4-methylpiperazin-1-yl)phenyl)pyrimidine-2,4-diamine], for which the half-inhibitory concentration (IC50) on PLK1 [1] and at PLK1 [2] was under 0.5 µM throughout. For the same compound, the pIC50 at PLK1 [2] (setting [4]) is over 5.00.

For the compound `CCN1C(=O)COc2ccc(Nc3nc(Nc4ccc(N5CCN(C)CC5)cc4)ncc3Cl)cc21` [compound 173, 6-(5-chloro-2-(4-(4-methylpiperazin-1-yl)phenylamino)pyrimidin-4-ylamino)-4-ethyl-2H-benzo[b][1,4]oxazin-3(4H)-one], the 50% inhibitory concentration (IC50) at PLK1 [1] and on PLK1 [2] was 0.5 to 5 µM in each case. Besides, the negative-log IC50 (pIC50) at PLK1 [2] (setting [4]) was over 5.00.

In the case of `CCN1CCN(c2ccc(Nc3ncc(Cl)c(Nc4ccc5c(c4)N(CC)C(=O)CO5)n3)cc2)CC1` [compound 183, 6-(5-chloro-2-(4-(4-ethylpiperazin-1-yl)phenylamino)pyrimidin-4-ylamino)-4-ethyl-2H-benzo[b][1,4]oxazin-3(4H)-one], the half-inhibitory concentration (IC50) at PLK1 [1] and on PLK1 [2] was 0.5 to 5 µM throughout. In addition, the pIC50 at PLK1 [2] (setting [4]) is over 5.00.

Take `Cc1cnc(Nc2ccc(N3CCN(C)CC3)cc2)nc1Nc1ccc2c(c1)N(CCCF)C(=O)CO2` [compound 188, 4-(3-fluoropropyl)-6-(5-methyl-2-(4-(4-methylpiperazin-1-yl)phenylamino)pyrimidin-4-ylamino)-2H-benzo[b][1,4]oxazin-3(4H)-one]: the half-maximal inhibitory concentration (IC50) on PLK1 [1] and at PLK1 [2] was 0.5 to 5 µM in each case. Besides, the negative logarithm of the IC50 (pIC50) at PLK1 [2] (setting [4]) was over 5.00.

As for `CCN1C(=O)COc2ccc(Nc3nc(Nc4ccc(N5CCN(C)CC5)cc4)ncc3C)cc21` [compound 189, 4-ethyl-6-(5-methyl-2-(4-(4-methylpiperazin-1-yl)phenylamino)pyrimidin-4-ylamino)-2H-benzo[b][1,4]oxazin-3(4H)-one], the half-inhibitory concentration (IC50) against PLK1 [1] and at PLK1 [2] was 0.5 to 5 µM throughout. Besides, the negative logarithm of the IC50 (pIC50) on PLK1 [2] (setting [4]) was over 5.00.

Regarding `CCN1C(=O)COc2ccc(Nc3nc(Nc4ccc(N5CCN(C)CC5)c(C)c4)ncc3C)cc21` [compound 191, 4-ethyl-6-(5-methyl-2-(3-methyl-4-(4-methylpiperazin-1-yl)phenylamino)pyrimidin-4-ylamino)-2H-benzo[b][1,4]oxazin-3(4H)-one], the 50% inhibitory concentration (IC50) on PLK1 [1] was at least 10 µM; at PLK1 [2], 5 to 10 µM. The pIC50 on PLK1 [2] (setting [4]) was over 5.00.

In the case of `CCN1C(=O)COc2ccc(Nc3nc(Nc4ccc(N5CCN(S(C)(=O)=O)CC5)cc4)ncc3C)cc21` [compound 196, 4-ethyl-6-(5-methyl-2-(4-(4-(methyl-sulfonyl)piperazin-1-yl)phenylamino)pyrimidin-4-ylamino)-2H-benzo[b][1,4]oxazin-3(4H)-one], the 50% inhibitory concentration (IC50) on PLK1 [1] was 5 to 10 µM; on PLK1 [2] it was 0.5 to 5 µM. Further, at PLK1 [2] (setting [4]), the pIC50 is over 5.00.

Consider `CN1C(=O)COc2ccc(Nc3nc(Nc4ccc(N5CCN(S(C)(=O)=O)CC5)cc4)ncc3Cl)cc21` [compound 197, 6-(5-chloro-2-(4-(4-(methylsulfonyl)piperazin-1-yl)phenyl-amino)pyrimidin-4-ylamino)-4-methyl-2H-benzo[b][1,4]oxazin-3(4H)-one], for which the IC50 at PLK1 [1] is 0.5 to 5 µM; at PLK1 [2], at least 10 µM.
